In patent publication US20200147058A1, “KRAS INHIBITOR FOR USE IN TREATING CANCER” (Friedrich-Alexander-Universitat Erlangen-Numberg, priority 2016, published 2020):

Experiments:
Mel Im cells = test: real-time cell proliferation (slope of cell index); format: cell-based, human; conditions: different concentrations of DR vs DMSO
Text: (§1) FIGS. 4A through 4H depict that small Molecule KRAS Inhibition Reduces Proliferation and Induces Apoptosis in Melanoma. FIGS. 4A and 4B show proliferation (slope of cell index) of Mel Juso (FIG. 4A) and Mel Im (FIG. 4B) cells treated with DMSO and different concentrations of the KRAS small molecule inhibitor Deltarasin (DR). The cell index as dimensionless parameter for cell proliferative ability was used to determine the half maximal inhibitory concentration (IC50, small graphs) of DR. […] FIG. 4D illustrates exemplary images of different melanoma cell lines (Mel Im, Mel Juso and Mel Ei) treated with 5 μM DR or 5 μM DMSO, respectively, for 24 hours. FIGS. 4E and 4F show images of fibroblast cell lines derived from two different donors (F1, F2) and melanocytes (NHEM) treated DR (20 μM, 48 hours) or DMSO (FIG. 4E), and lactate dehydrogenase (LDH) quantification (FIG. 4F) in cell supernatants (optic density, OD) of NHEM after treatment with low dose DMSO, DR (5 μM), and DR (10 μM), respectively.

Mel Juso cells [1] = test: real-time cell proliferation (slope of cell index); format: cell-based, human; conditions: different concentrations of DR vs DMSO
Text: as §1

melanoma cells = test: lactate dehydrogenase (LDH) quantification in cell supernatants after low dose DR; format: cell-based, human; conditions: low dose DR (2 μM), 24 hours
Mel Juso cells [2] = test: three-dimensional, anchorage-independent colony-forming assay; format: cell-based, human; conditions: Mel Juso (BRAFi primary resistant); DR 5 μM, PLX 10 μM, alone or combined
Text: FIGS. 5A through 5D show time-dependent measurement of colony diameters (exemplary data in top panels) in three-dimensional, anchorage-independent “colony-forming” assays (FIGS. 5A and 5B: Mel Im, FIGS. 5C and 5D: Mel Juso). Exemplary Images (middle) and corresponding quantification of colony diameters (bottom panels, summarized data of n=3 experiments at day 19 after seeding) are also depicted. […] Effects on i) colony formation (FIGS. 5A and 5C, treatment at day 1) and ii) proliferation of pre-formed colonies (FIGS. 5B and 5D, treatment at day 7 and 13) were analyzed. […] Cells were treated for 5 hours with DMSO, 5 μM Deltarasin (DR), 10 μM PLX, or a combination of 10 μM PLX and 5 μM DR. […] (FIG. 5H) Mel Im and Mel Juso were transfected with control si-RNA (si-CTR) or with si-KRAS (si-KR). Two subgroups (blue and red) were additionally treated with 10 μM PLX (Vemurafenib) for 24 hours, with subsequent flow cytometric quantification of tumor cell apoptosis according to FIG. 5G.

[3] = tested on: resistant cell clones (SkMel28-R, 451Lu-R); test: real-time cell proliferation of BRAFi-resistant melanoma cells; format: cell-based, human; conditions: in combination with 5 or 10 μM PLX
Protocol: FIGS. 6A through 6H depict that KRASi Prevents Emergence of Resistance and KRAS Expression is Regulated Dynamically in Acquired Resistance to BRAFi. […] Asterisks indicate significant differences (p<0.05) as compared to according control (0 μM PLX). FIGS. 6E and 6F are exemplary Western blot images (FIG. 6E) depicting immunostaining of AKT, pAKT, ERK, pERK, and KRAS. Densitometric values (DM) are also shown, representing relative quantifications. Resistant cell lines 451Lu-R and SkMel28-R were treated with 0, 5, or 10 μM PLX for 8 hours, and according summarized quantification of KRAS protein expression (n=3, FIG. 6F).
FIGS. 7A through 7I present KRAS Inhibition Re-sensitizes BRAF Inhibitor Resistant Cells for Inhibition of Proliferation and Induction of Apoptosis. […] show real-time cell proliferation (exemplary proliferation curve depicted in FIG. 6A, summarized slopes of proliferation curves depicted in FIG. 6B) of PLX-resistant cells treated with si-KRAS (KR) or control si-RNA (CTR), respectively, in combination with 5 or 10 μM PLX. FIGS. 7C and 7D show real-time cell proliferation (exemplary proliferation curve depicted in […], summarized slopes of proliferation curves depicted in FIG. 7D) of PLX-resistant cells treated with Deltarasin (DR) or DMSO, respectively, in combination with 5 or 10 μM PLX, according to FIGS. 7A and 7B. […]

[4] = tested on: murine hepatoma cell line Hepa129; test: apoptosis by FACS analysis; format: cell-based; conditions: 24 hours
Protocol: FIGS. 12A through 12C depict Murine Hepatoma Cells (Hepta129) Sensitive for Small Molecule KRAS Inhibition in vitro and in vivo. […] is exemplary images (4-fold) depicting murine Hepatoma Cells (Hepa129) treated for 24 hours with Deltarasin (DR) and/or Sorafenib (SF) using different concentration of inhibitors.

PLC = conditions: DR doses
[5] = tested on: pancreatic adenocarcinoma cells; conditions: Zimmermann et al., 2013; cited from earlier work

## c1ccc(Cn2c(-c3ccc(OC[C@H](C4CCNCC4)n4c(-c5ccccc5)nc5ccccc54)cc3)nc3ccccc32)cc1 [Deltarasin, (S)-1-Benzyl-2-(4-(2-(2-phenyl-1H-benzo[d]imidazol-1-yl)-2-(piperidin-4-yl)ethoxy)phenyl)-1H-benzo[d]imidazole]
Mel Im cells
  inhibition of proliferation (slope of cell index): dose-dependent inhibition of proliferation
Mel Juso cells [1]
  inhibition of proliferation (slope of cell index): dose-dependent inhibition of proliferation
Melanoma cells
  lactate dehydrogenase (LDH) amounts in cell supernatants: sufficient to increase lactate dehydrogenase (LDH) amounts
Mel Juso cells [2]
  three-dimensional colony formation and colony proliferation: markedly inhibited
[3]
  proliferation of PLX-treated, BRAFi-resistant melanoma cells: dose dependent inhibition of proliferation
[4]
  apoptosis: marked effects
PLC
  inhibition of proliferation: strong dose-dependent inhibition of proliferation
[5]
  proliferation of pancreatic adenocarcinoma cells: reduce proliferation
